Data published in ChEMBL document CHEMBL1140856, “Substituted 1,2,3,4-tetrahydroquinolin-6-yloxypropanes as beta3-adrenergic receptor agonists: design, synthesis, biological evaluation and pharmacophore modeling” (Bioorg Med Chem, 2009).

What was measured:
[1] = target: T1, Beta-3 adrenergic receptor (Homo sapiens, UniProt P13945); assay: Displacement of [125I]iodocyanopindolol from human adrenergic beta-3 receptor at 1 uM
Target sequence in this assay (P13945 whole entry, looked up): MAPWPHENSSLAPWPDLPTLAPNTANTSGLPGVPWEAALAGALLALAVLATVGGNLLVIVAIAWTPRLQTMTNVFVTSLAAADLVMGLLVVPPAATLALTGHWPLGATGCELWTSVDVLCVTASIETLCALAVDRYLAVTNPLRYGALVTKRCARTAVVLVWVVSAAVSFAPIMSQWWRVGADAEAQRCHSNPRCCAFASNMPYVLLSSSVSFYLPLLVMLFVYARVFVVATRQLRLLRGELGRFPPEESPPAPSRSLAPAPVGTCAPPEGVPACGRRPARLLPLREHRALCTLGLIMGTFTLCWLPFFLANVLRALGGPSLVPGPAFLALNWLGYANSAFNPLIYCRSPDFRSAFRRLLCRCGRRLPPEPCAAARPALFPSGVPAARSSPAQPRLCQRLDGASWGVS

[2] = target: T1, Beta-3 adrenergic receptor; assay: Displacement of [125I]iodocyanopindolol from human adrenergic beta-3 receptor at 10 uM
Target sequence in this assay (P13945 whole entry, looked up): as above

[3] = target: T1, Beta-3 adrenergic receptor; assay: Displacement of [125I]iodocyanopindolol from human adrenergic beta-3 receptor
Target sequence in this assay (P13945 whole entry): as the sequence (P13945 whole entry, looked up) above

[4] = target: T1, Beta-3 adrenergic receptor; assay: Agonist activity at adrenergic beta-3 receptor in human SK-N-MC cells; assay type: functional, cell-based
Target sequence in this assay (P13945 whole entry): as the sequence (P13945 whole entry, looked up) above

[5] = target: Beta-1 adrenergic receptor (Homo sapiens, UniProt P08588); assay: Agonist activity at adrenergic beta-1 receptor; assay type: functional
[6] = target: Beta-2 adrenergic receptor (Homo sapiens, UniProt P07550); assay: Agonist activity at adrenergic beta-2 receptor; assay type: functional
[7] = Selectivity ratio of EC50 for adrenergic beta-2 receptor to EC50 for human adrenergic beta3 receptor
[8] = Selectivity ratio of EC50 for adrenergic beta-1 receptor to EC50 for human adrenergic beta-3 receptor

Beta-1 adrenergic receptor, sequence (P08588 whole entry): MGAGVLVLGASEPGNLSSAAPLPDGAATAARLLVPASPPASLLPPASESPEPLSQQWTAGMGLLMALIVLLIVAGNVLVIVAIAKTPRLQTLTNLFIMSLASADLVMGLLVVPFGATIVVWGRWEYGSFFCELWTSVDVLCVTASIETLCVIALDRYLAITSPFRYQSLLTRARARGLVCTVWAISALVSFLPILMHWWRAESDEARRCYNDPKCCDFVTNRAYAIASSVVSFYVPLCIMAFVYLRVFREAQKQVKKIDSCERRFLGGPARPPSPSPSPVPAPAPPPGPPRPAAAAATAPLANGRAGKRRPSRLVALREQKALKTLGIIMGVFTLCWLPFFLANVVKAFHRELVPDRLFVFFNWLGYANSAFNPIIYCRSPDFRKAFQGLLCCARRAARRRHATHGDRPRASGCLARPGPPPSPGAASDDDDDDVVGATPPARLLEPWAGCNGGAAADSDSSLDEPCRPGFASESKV
Beta-2 adrenergic receptor, sequence (P07550 whole entry): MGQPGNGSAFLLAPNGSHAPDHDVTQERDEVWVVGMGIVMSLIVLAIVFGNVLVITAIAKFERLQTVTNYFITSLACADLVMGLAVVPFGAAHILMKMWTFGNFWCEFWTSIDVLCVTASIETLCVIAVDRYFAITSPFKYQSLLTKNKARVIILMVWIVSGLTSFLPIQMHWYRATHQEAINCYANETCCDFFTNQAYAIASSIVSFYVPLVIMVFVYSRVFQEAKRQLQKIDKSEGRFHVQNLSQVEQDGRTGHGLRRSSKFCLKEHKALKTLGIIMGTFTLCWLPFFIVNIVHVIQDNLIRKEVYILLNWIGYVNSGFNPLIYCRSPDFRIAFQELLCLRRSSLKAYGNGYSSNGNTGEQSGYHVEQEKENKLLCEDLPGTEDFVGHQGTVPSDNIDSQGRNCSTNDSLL

Row | SMILES | inhibition [1] [%] | inhibition [2] [%] | further results
1 | OC(COc1ccc2c(c1)CCCN2Cc1ccccc1)CN1CCN(Cc2ccccc2)CC1 (stereo not drawn) | -0.84 | 17.1 | 
2 | COc1ccc(CNCC(O)COc2ccc3c(c2)CCCN3Cc2ccccc2)cc1 (stereo not drawn) | 9.26 | 27.4 | 
3 | OC(COc1ccc2c(c1)CCCN2Cc1ccccc1)CN1CCN(Cc2ccc3c(c2)OCO3)CC1 (stereo not drawn) | -5.28 | 18.1 | 
4 | CC(NCC(O)COc1ccc2c(c1)CCCN2Cc1ccccc1)c1ccccc1 (stereo not drawn) | 7.71 | 27.5 | 
5 | OC(COc1ccc2c(c1)CCCN2Cc1ccccc1)CN1CCN(c2ccc(F)cc2)CC1 (stereo not drawn) | 49.7 | 68.8 | IC50 [3]: 1760 nM
6 | COc1ccc(CCNCC(O)COc2ccc3c(c2)CCCN3S(=O)(=O)c2ccccc2)cc1OC (stereo not drawn) | 26.5 | 38.9 | 
7 | CC(C)NCC(O)COc1ccc2c(c1)CCCN2Cc1ccccc1 (stereo not drawn) | 59.7 | 83.2 | EC50 [4]: 883 nM; EC50 [5]: 2030 nM; EC50 [6]: 1160 nM; IC50 [3]: 590 nM; Ratio EC50 [7]: 1.31; Ratio EC50 [8]: 2.3
8 | COc1ccc(N2CCN(CC(O)COc3ccc4c(c3)CCCN4Cc3ccccc3)CC2)cc1 (stereo not drawn) | 45.1 | 49.8 | 
9 | OC(CNCCc1ccc(Cl)cc1)COc1ccc2c(c1)CCCN2Cc1ccccc1 (stereo not drawn) | 55.8 | 63.1 | 
10 | CCCNCCCOc1ccc2c(c1)CCCN2Cc1ccccc1 | 5.62 | 16.2 | 
11 | CCN(CC)CC(O)COc1ccc2c(c1)CCCN2Cc1ccccc1 (stereo not drawn) | 9.18 | 11.2 | 
12 | COc1ccc(N2CCN(CCCOc3ccc4c(c3)CCCN4Cc3ccccc3)CC2)cc1 | 6.72 | 1.95 | 
13 | COc1ccccc1N1CCN(CC(O)COc2ccc3c(c2)CCCN3Cc2ccccc2)CC1 (stereo not drawn) | 12.2 | 14.5 | 
14 | Clc1ccc(CCNCCCOc2ccc3c(c2)CCCN3Cc2ccccc2)cc1 | 42.9 | 58.7 | 
15 | CC(Cc1ccc(O)cc1)N1CCOC(c2ccccc2)C1 (stereo not drawn) | 0.34 | 0.24 | 
16 | CN(Cc1ccccc1)CC(O)COc1ccc2c(c1)CCCN2Cc1ccccc1 (stereo not drawn) | -4.54 | 2.54 | 
17 | COc1ccc(CCN(CC(O)COc2ccc3c(c2)CCCN3)C(=O)OC(C)(C)C)cc1OC (stereo not drawn) | 23.2 | 28.1 | 
18 | OC(COc1ccc2c(c1)CCCN2Cc1ccccc1)CN1CCN(c2ccccc2)CC1 (stereo not drawn) | 45.9 | 52.2 | 
19 | OC(COc1ccc2c(c1)CCCN2Cc1ccccc1)CN1CCN(c2cccc(Cl)c2)CC1 (stereo not drawn) | -2.34 | 11.3 | 
20 | CC1CN(c2ccc(Cl)cc2)CCN1CC(O)COc1ccc2c(c1)CCCN2Cc1ccccc1 (stereo not drawn) | 3.61 | 0.08 | 

Row | SMILES | inhibition [1] [%] | inhibition [2] [%] | further results
21 | CC(Cc1ccc(OCC(=O)O)cc1)N1CCOC(c2ccccc2)C1 (stereo not drawn) | -9.63 | 9.42 | 
22 | O=[N+]([O-])c1ccc(N2CCN(CC(O)COc3ccc4c(c3)CCCN4Cc3ccccc3)CC2)cc1 (stereo not drawn) | 6.08 | 4.13 | 
23 | COc1ccc(CCN(CC(O)COc2ccc3c(c2)CCCN3Cc2ccccc2)C(=O)OC(C)(C)C)cc1OC (stereo not drawn) | 37.8 | 46.7 | 
24 | OC(COc1ccc2c(c1)CCCN2Cc1ccccc1)CN1CCN(c2ccccc2F)CC1 (stereo not drawn) | 5.5 | 20.4 | 
25 | OC(COc1ccc2c(c1)CCCN2Cc1ccccc1)CN1CCC(O)(c2ccccc2)CC1 (stereo not drawn) | 46.4 | 50.5 | 
26 | CN1CCN(CC(O)COc2ccc3c(c2)CCCN3Cc2ccccc2)CC1 (stereo not drawn) | -3.71 | 0.18 | 
27 | COc1ccc(CCNCC(O)COc2ccc3c(c2)CCCN3Cc2ccccc2)cc1OC (stereo not drawn) | 72.8 | 90.6 | IC50 [3]: 550 nM
28 | Cc1ccc(CCNCC(O)COc2ccc3c(c2)CCCN3Cc2ccccc2)cc1 (stereo not drawn) | 8.17 | 18.1 | 
29 | CC1CCN(CC(O)COc2ccc3c(c2)CCCN3Cc2ccccc2)CC1 (stereo not drawn) | -1.79 | 12.8 | 
30 | CCCCN(CCCC)CC(O)COc1ccc2c(c1)CCCN2Cc1ccccc1 (stereo not drawn) | 4.09 | 14.7 | 
31 | CCOC(=O)COc1ccc(CC(C)N2CCOC(c3ccccc3)C2)cc1 (stereo not drawn) |  | -1.36 | 
32 | COc1ccc(CCNCC(O)COc2ccc3c(c2)CCCN3Cc2ccccc2)cc1 (stereo not drawn) | 56.2 | 76.5 | EC50 [4]: 4880 nM; EC50 [5]: 7280 nM; EC50 [6]: 5900 nM; IC50 [3]: 1180 nM; Ratio EC50 [7]: 1.2; Ratio EC50 [8]: 1.47
33 | OC(COc1ccc2c(c1)CCCN2Cc1ccccc1)CN1CCN(c2ccccn2)CC1 (stereo not drawn) | 5.32 | 12.7 | 
34 | OC(COc1ccc2c(c1)CCCN2Cc1ccccc1)CN1CCCCC1 (stereo not drawn) | 4.27 | 31.4 | 
35 | Cc1ccc(N2CCN(CC(O)COc3ccc4c(c3)CCCN4Cc3ccccc3)C(C)C2)cc1 (stereo not drawn) | 3.19 | 11.8 | 
36 | OC(COc1ccc2c(c1)CCCN2Cc1ccccc1)CN1CCN(c2ccc(Cl)c(Cl)c2)CC1 (stereo not drawn) | -7.18 | 0.28 | 
37 | OC(CNCc1ccccc1)COc1ccc2c(c1)CCCN2Cc1ccccc1 (stereo not drawn) | 1.81 | 19 | 
38 | COc1ccc(CCNCC(O)COc2ccc3c(c2)CCCN3)cc1OC (stereo not drawn) | 33.1 | 56.5 | 
39 | CCCNCC(O)COc1ccc2c(c1)CCCN2Cc1ccccc1 (stereo not drawn) | 19.2 | 66.3 | 
40 | OC(COc1ccc2c(c1)CCCN2Cc1ccccc1)CN1CCC(Cc2ccccc2)CC1 (stereo not drawn) | -2.05 | 23.5 | 
